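Compound exposure: 48 hours, 5 concentrations, 96-well plates. The concentration for full growth arrest is given as TGI.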
Key:
Assay in all cases: NCI anticancer screen, dose series, 48 h
[1] = system: HS 578T breast
[2] = system: SK-MEL-2 melanoma
[3] = system: OVCAR-8 ovarian
[4] = system: SR leukemia
[5] = system: SK-MEL-5 melanoma
[6] = system: MALME-3M melanoma
[7] = system: MDA-MB-231 breast
[8] = system: NCI-H226 lung
[9] = system: LOX IMVI melanoma
[10] = system: SNB-75 CNS
[11] = system: SW-620 colon
[12] = system: SN12C renal
[13] = system: COLO 205 colon
[14] = system: HOP-92 NSCLC
[15] = system: SF-295 CNS
[16] = system: HCT-15 colon
[17] = system: SNB-19 CNS
[18] = system: HOP-62 NSCLC
[19] = system: ACHN renal
[20] = system: MOLT-4 leukemia
[21] = system: UACC-257 melanoma
[22] = system: MCF7 breast
[23] = system: IGROV1 ovarian
[24] = system: PC-3 prostate
[25] = system: OVCAR-3 ovarian
[26] = system: HT29 colon
[27] = system: NCI/ADR-RES ovarian
[28] = system: T-47D breast
[29] = system: UACC-62 melanoma
[30] = system: NCI-H522 lung
[31] = system: NCI-H460 lung
[32] = system: M14 melanoma
[33] = system: UO-31 renal
[34] = system: SF-268 CNS
[35] = system: EKVX NSCLC
[36] = system: A549 NSCLC
[37] = system: OVCAR-5 ovarian
[38] = system: SK-OV-3 ovarian
[39] = system: OVCAR-4 ovarian
[40] = system: BT-549 breast

Measured: TGI

O=S(=O)(O)Oc1cc2c(c(OS(=O)(=O)O)c1)C[C@H](OS(=O)(=O)O)[C@@H](c1ccc(OS(=O)(=O)O)c(OS(=O)(=O)O)c1)O2
> 100 µM: all assays above

— PubChem BioAssay (NCI)
